Read-outs that look alike come from different tables or passages of the source.
Tested on: Hedgehog pathway activation (GLi-luciferase reporter) in Shh Light II reporter cells
Test: Hedgehog pathway activation on Shh Light II reporter cells measured by luciferase activity
Assay type: cell-based
Details: hShh activation, read-out: Shh (IC50, inhibition of Hedgehog pathway activation)
Experimental: Hedgehog conditioned media was obtained by transfecting 293H cells with the full length gene encoding human Sonic Hedgehog (hShh) inserted into the pCMV6 expression vector, which contains a neomycin selectable marker and expresses the protein of interest with a C-terminal FLAG affinity tag. After selection in G418 containing media, conditioned media from Hedgehog expressing clones were tested for the ability to activate the hedgehog-responsive GLi-luciferase reporter in the Shh Light II cell line obtained by license from John Hopkins University (Taipale J, et al. Effects of oncogenic mutations in Smoothened and Patched can be reversed by cyclopamine. Nature 406: 1005-1009, 2000).
A test compound library was screened against hShh and 500 nM SAG (a direct agonist of the Smoothened receptor) activated 10T1/2/Smo#3 cells and Shh Light II reporter cells for the ability to block Hedgehog pathway activation. Concurrently, cell viability was measured by utilizing Celltiter-Blue® (Promega, Madison Wis.) viability assay. Active compounds were defined as those that inhibited Hedgehog signaling by greater than 50% with no concurrent loss in cell viability.
Their inhibitory activity against Hedgehog pathway activation on 10T1/2/Smo#3 cells as measured by ALP activity and Shh Light II reporter cells as measured by luciferase activity is shown in Table 1 below. In Table 1, +++ stands for an IC50 value that is less than 0.3 μM, ++ between 0.3 and 3 μM, + between 3 and 30 μM.
Additional data for compounds of the invention is shown below in Table 2. Their inhibitory activities against Hedgehog pathway activation are shown as IC50 values in μM on 10T1/2/Smo#3 cells as measured by ALP activity, or on Shh Light II reporter cells as measured by luciferase activity (hShh activation).

Row | SMILES | IC50 (Mus musculus, Shh Light II) | IC50
1 | Cc1ccc(-c2cn3nc(NC(=O)c4cc(Cl)ccn4)ccc3n2)cc1NC(=O)C(C)(C)C [compound 613] | 283 nM | –
2 | CC(=O)c1ccc(-c2ccc3nc(-c4ccc(C)c(NC(=O)C(C)(C)C)c4)cn3n2)cc1 [compound 522] | 1300 nM | –
3 | Cc1ccc(-c2cn3nc(N4CCC(F)(F)C4)ccc3n2)cc1NC(=O)C(C)(C)C [Example 277, N-(5-(6-(3,3-difluoropyrrolidin-1-yl)imidazo[1,2-b]pyridazin-2-yl)-2-methylphenyl)pivalamide] | 350 nM | –
4 | Cc1ccc(-c2cn3nc(NS(=O)(=O)c4cccc(Br)c4)ccc3n2)cc1NC(=O)C(C)(C)C [compound 595] | 348 nM | –
5 | Cc1ccc(-c2cn3nc(-c4cccnc4O)ccc3n2)cc1NC(=O)C(C)(C)C [Example 406, N-(5-(6-(2-hydroxypyridin-3-yl)imidazo[1,2-b]pyridazin-2-yl)-2-methylphenyl)pivalamide] | 2060 nM | –
6 | Cc1ccc(-c2cn3nc(-c4cccnc4C(F)(F)F)ccc3n2)cc1NC(=O)CCCCC(=O)NO [Example 440, N^1-hydroxy-N^6-(2-methyl-5-(6-(2-(trifluoromethyl)pyridin-3-yl)imidazo[1,2-b]pyridazin-2-yl)phenyl)adipamide] | 4060 nM | –
7 | CC(C)(C)C(=O)Nc1cc(-c2cn3nc(-c4cccnc4N4CCOCC4)ccc3n2)ccc1C(F)(F)F [Example 335, N-(5-(6-(2-morpholinopyridin-3-yl)imidazo[1,2-b]pyridazin-2-yl)-2-(trifluoromethyl)phenyl)pivalamide] | 1610 nM | –
8 | Cc1ccc(-c2cn3nc(-c4cccnc4C(F)(F)F)ccc3n2)cc1C(N)=O [Example 482, 2-methyl-5-(6-(2-(trifluoromethyl)pyridin-3-yl)imidazo[1,2-b]pyridazin-2-yl)benzamide] | > 10000 nM | –
9 | Cc1ccc(-c2cn3nc(-c4ccc(O)cc4Cl)ccc3n2)cc1NC(=O)C(C)(C)C [compound 548] | 763 nM | –
10 | Cc1ccc(F)c(-c2ccc3nc(-c4ccc(C(F)(F)F)c(NC(=O)C(C)(C)C)c4)cn3n2)c1 [Example 226, N-(5-(6-(2-fluoro-5-methylphenyl)imidazo[1,2-b]pyridazin-2-yl)-2-(trifluoromethyl)phenyl)pivalamide] | 1480 nM | –
11 | Cc1ccc(-c2cn3nc(-c4cccnc4C(F)(F)F)ccc3n2)cc1NC(=O)c1cccc(C=CC(=O)NO)c1 [compound 625, 3-(3-(hydroxyamino)-3-oxoprop-1-en-1-yl)-N-(2-methyl-5-(6-(2-(trifluoromethyl)pyridin-3-yl)imidazo[1,2-b]pyridazin-2-yl)phenyl)benzamide] | 813 nM | –
12 | CC(=O)Nc1ccc(-c2ccc3nc(-c4ccc(C)c(NC(=O)C(C)(C)C)c4)cn3n2)c(C)n1 [compound 504, N-(5-(6-(6-acetamido-2-methylpyridin-3-yl)imidazo[1,2-b]pyridazin-2-yl)-2-methylphenyl)pivalamide] | 360 nM | –
13 | Cc1ccc(-c2cn3nc(-c4cccnc4C(F)(F)F)ccc3n2)cc1NS(=O)(=O)c1cccc(C=CC(=O)NO)c1 [compound 626, N-hydroxy-3-(3-(N-(2-methyl-5-(6-(2-(trifluoromethyl)pyridin-3-yl)imidazo[1,2-b]pyridazin-2-yl)phenyl)sulfamoyl)phenyl)acrylamide] | 2910 nM | –
14 | CC(C)(C)OC(=O)N1CCN(c2ccc3nc(-c4ccc(C(F)(F)F)c(NC(=O)C(C)(C)C)c4)cn3n2)CC1 [Example 327, tert-butyl 4-(2-(3-pivalamido-4-(trifluoromethyl)phenyl)imidazo[1,2-b]pyridazin-6-yl)piperazine-1-carboxylate] | 484 nM | –
15 | COC(=O)CCCCC(=O)Nc1cc(-c2cn3nc(-c4cccnc4C(F)(F)F)ccc3n2)ccc1C [Example 421, methyl 6-(2-methyl-5-(6-(2-(trifluoromethyl)pyridin-3-yl)imidazo[1,2-b]pyridazin-2-yl)phenylamino)-6-oxohexanoate] | 3310 nM | –
16 | Cc1ccc(-c2cn3nc(-c4cccnc4C(F)(F)F)ccc3n2)cc1-c1nc(C(C)(C)C)cs1 [compound 520] | 492 nM | –
17 | Cc1ccc(-c2cn3nc(N4CCC(NCCCCCCC(=O)NO)C4)ccc3n2)cc1NC(=O)C(C)(C)C (stereo not shown) [Example 419, N-hydroxy-7-(1-(2-(4-methyl-3-pivalamidophenyl)imidazo[1,2-b]pyridazin-6-yl)pyrrolidin-3-ylamino)heptanamide] | 968 nM | –
18 | CCOC(=O)C=Cc1ccc2nc(-c3ccc(C)c(NC(=O)C(C)(C)C)c3)cn2n1 [compound 572] | 596 nM | –
19 | CC(C)(C)C(=O)Nc1cc(-c2cn3nc(N4CC(F)(F)C4)ccc3n2)ccc1C(F)(F)F [Example 315, N-(5-(6-(3,3-difluoroazetidin-1-yl)imidazo[1,2-b]pyridazin-2-yl)-2-(trifluoromethyl)phenyl)pivalamide] | 807 nM | –
20 | Cc1ccc(-c2cn3nc(-c4cc(CO)ccc4F)ccc3n2)cc1NC(=O)C(C)(C)C [Example 275, N-(5-(6-(2-fluoro-5-(hydroxymethyl)phenyl)imidazo[1,2-b]pyridazin-2-yl)-2-methylphenyl)pivalamide] | 1800 nM | –

Row | SMILES | IC50 (Mus musculus, Shh Light II) | IC50
21 | Cc1ccc(-c2cn3nc(-c4c(C)n[nH]c4C)ccc3n2)cc1NC(=O)C(C)(C)C [compound 501] | 1000 nM | –
22 | COc1ccc2nc(-c3ccc(C)c(NS(=O)(=O)c4cccc(C=CC(=O)NO)c4)c3)cn2n1 [compound 618] | 9080 nM | –
23 | CC(C)(C)C(=O)Nc1cc(-c2cn3nc(-c4ccccc4N)ccc3n2)ccc1C(F)(F)F [Example 345, N-(5-(6-(2-aminophenyl)imidazo[1,2-b]pyridazin-2-yl)-2-(trifluoromethyl)phenyl)pivalamide] | 5490 nM | –
24 | Cc1ccc(-c2cn3nc(C=CC(=O)NO)ccc3n2)cc1NC(=O)C(C)(C)C [compound 578] | 9280 nM | –
25 | Cc1ccc(-c2cn3nc(-c4ccc(C(N)=NO)cc4)ccc3n2)cc1NC(=O)C(C)(C)C [compound 546] | 1130 nM | –
26 | CCOC(=O)C=Cc1cccc(S(=O)(=O)Nc2cc(-c3cn4nc(Cl)ccc4n3)ccc2C)c1 [compound 607] | 2100 nM | –
27 | C[C@@H]1CNCCN1c1ccc2nc(-c3ccc(C(F)(F)F)c(NC(=O)C(C)(C)C)c3)cn2n1 [Example 466, (R)-N-(5-(6-(2-methylpiperazin-1-yl)imidazo[1,2-b]pyridazin-2-yl)-2-(trifluoromethyl)phenyl)pivalamide] | 2020 nM | –
28 | Cc1ccc(-c2cn3nc(N4CCC(F)(F)CC4)ccc3n2)cc1NC(=O)C(C)(C)C [Example 282, N-(5-(6-(4,4-difluoropiperidin-1-yl)imidazo[1,2-b]pyridazin-2-yl)-2-methylphenyl)pivalamide] | 1450 nM | –
29 | Cc1ccc(-c2cn3nc(-c4cccc(C(=O)O)c4)ccc3n2)cc1NC(=O)C(C)(C)C [compound 528] | 5850 nM | –
30 | CC(=O)Nc1ncc(-c2cc(-c3cn4nc(-c5cccnc5C(F)(F)F)ccc4n3)ccc2C)s1 [compound 513] | 376 nM | –
31 | Cc1ccc(-c2cn3nc(-c4cccnc4C(F)(F)F)ccc3n2)cc1NC(=O)C(C)(C)C#N [compound 621, 2-cyano-2-methyl-N-(2-methyl-5-(6-(2-(trifluoromethyl)pyridin-3-yl)imidazo[1,2-b]pyridazin-2-yl)phenyl)propanamide] | 53 nM | –
32 | Cc1ccc(-c2cn3nc(-c4ccc(N)nc4)ccc3n2)cc1NC(=O)C(C)(C)C [Example 402, N-(5-(6-(6-aminopyridin-3-yl)imidazo[1,2-b]pyridazin-2-yl)-2-methylphenyl)pivalamide] | 1560 nM | –
33 | COc1cc(CNc2ccc3nc(-c4ccc(C)c(NC(=O)C(C)(C)C)c4)cn3n2)cc(OC)c1OC [compound 587] | 632 nM | –
34 | Cc1ccc(-c2cn3nc(Cl)ccc3n2)cc1NC(=O)c1cccc(C=CC(=O)NO)c1 [compound 615] | 2240 nM | –
35 | Cc1ccc(-c2cn3nc(-c4ccc(-c5nnco5)cc4)ccc3n2)cc1NC(=O)C(C)(C)C [compound 539] | 350 nM | –
36 | CC(C)(C)C(=O)Nc1cc(-c2cn3nc(N4CCCC4CO)ccc3n2)ccc1C(F)(F)F (stereo not shown) [Example 348, N-(5-(6-(2-(hydroxymethyl)pyrrolidin-1-yl)imidazo[1,2-b]pyridazin-2-yl)-2-(trifluoromethyl)phenyl)pivalamide] | 339 nM | –
37 | CC(C)(C)C(=O)Nc1cc(-c2cn3nc(N4CCC(N)C4)ccc3n2)ccc1C(F)(F)F (stereo not shown) [Example 319, N-(5-(6-(3-aminopyrrolidin-1-yl)imidazo[1,2-b]pyridazin-2-yl)-2-(trifluoromethyl)phenyl)pivalamide] | – | 347 nM
38 | Cc1ccc(-c2cn3nc(-c4ccc(C(N)=O)cc4)ccc3n2)cc1NC(=O)C(C)(C)C [compound 526] | 783 nM | –
39 | CC(C)(C)C(=O)Nc1cc(-c2cn3nc(-c4cccs4)ccc3n2)ccc1C(F)(F)F [Example 230, N-(5-(6-(thiophen-2-yl)imidazo[1,2-b]pyridazin-2-yl)-2-(trifluoromethyl)phenyl)pivalamide] | 1550 nM | –
40 | Cc1ccc(-c2cn3nc(-c4cccc(C(=O)NO)c4)ccc3n2)cc1NC(=O)C(C)(C)C [compound 589] | 498 nM | –

From patent publication US8871767B2, “2-arylimidazo[1,2-B]pyridazine, 2-phenylimidazo[1,2-A]pyridine, and 2-phenylimidazo[1,2-A]pyrazine derivatives” (Hengrui (USA) Ltd., priority 2010, dated 2014)
